In test [1] the test system is KG-1 cell line (FGFR 1-fusion). Briefly: Cancer cell line cell viability assay (Cell Titer-Glo), 72 hr. The class given is cell-based. The following applies: Homo sapiens, KG-1, KG-1 cell line (FGFR1-fusion). The gist of the method:
(§1)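 Cells were seeded at 5,000–20,000 per well, then exposed to a 9-point, 4-fold dilution series from 3 μM top concentration in triplicate at 37° C. Exposure was 120 h for MDA-MB-453 and HuH7 and 72 h for KG-1 and RT112/84. Viability was read as ATP by Cell Titer-Glo 2.0, expressed as % of DMSO control, and fitted by 4-parameter IC50.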
(In general: Cellular ATP, detected with luciferase, serves as a proxy for viable cell number.)

Test [2] relates to KATO-III cell line (FGFR2 amplification). The description is as above. The format is cell-based. The note with it: Homo sapiens, KATO III. In short, it runs like this: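 Following overnight attachment, each line receives compound in triplicate across nine 4-fold dilutions starting at 3 μM, with DMSO backfill for equal solvent. Luminescence after Cell Titer-Glo 2.0 addition gives percent viability versus DMSO control, fitted by 4-parameter logistic for IC50.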

Test [3] deals with RT112/84 cell line (FGFR3-fusion). The test is described as above. The class given is cell-based. The note with it: Homo sapiens, RT112/84, RT112/84 cell line (FGFR3-fusion). The gist of the method: as §1
The target in test [4] is T1, FGFR4 (Homo sapiens, UniProt P22455).
T1 construct: made in house; host or cells: E. coli (BL21-derived), T7 phage
Briefly: Kinase binding assay (kinase-tagged T7 phage, affinity beads, qPCR), Kd. The note with it: read-out: FGFR4 (Kd nM). The gist of the method: (§2)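 T7 phage displaying each kinase, grown in a BL21-derived E. coli host at 32° C until lysis, competed with test compound for biotinylated ligand immobilised on streptavidin beads. Bead-bound kinase was eluted and quantified by qPCR. Kd came from an 11-point 3-fold dilution series fitted to the Hill equation with slope fixed at −1.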
A general note: Quantitative PCR measures a nucleic acid by following its amplification.

Test [5] deals with T2, FGFR2 (Homo sapiens, UniProt P21802).
T2 construct: made in house; host or cells: E. coli (BL21-derived), T7 phage
Described as above. The following applies: read-out: FGFR2 (Kd nM). In short, it runs like this:
as §2

The target in test [6] is T3, FGFR1 (Homo sapiens, UniProt P11362).
T3 construct: made in house; host or cells: E. coli (BL21-derived), T7 phage
Described as above. The following applies: read-out: FGFR1 (Kd nM). The gist of the method: as §2

The target of test [7] is T4, FGFR3 (Homo sapiens, UniProt P22607).
T4 construct: made in house; host or cells: E. coli (BL21-derived), T7 phage
Described as above. The note with it: read-out: FGFR3 (Kd nM). In short, it runs like this:
as §2

The test system of test [8] is HuH7 cell line (FGF19 amplification). Briefly: Cancer cell line cell viability assay (Cell Titer-Glo), 120 hr. The note with it: Homo sapiens, Huh-7. The format is cell-based. In short, it runs like this:
as §1

This note sets out measurements from patent US20250368666A1, “INDAZOLE COMPOUNDS” (TYRA BIOSCIENCES, INC., priority 2022, published 2025).

What is called IC50 is the concentration that gives 50% inhibition. For orientation: Kd means the equilibrium constant for the complex coming apart.

The structures appear in SMILES notation. Where only a bound is given, the exact number is not on record here.

T4 sequence (P22607 23-806): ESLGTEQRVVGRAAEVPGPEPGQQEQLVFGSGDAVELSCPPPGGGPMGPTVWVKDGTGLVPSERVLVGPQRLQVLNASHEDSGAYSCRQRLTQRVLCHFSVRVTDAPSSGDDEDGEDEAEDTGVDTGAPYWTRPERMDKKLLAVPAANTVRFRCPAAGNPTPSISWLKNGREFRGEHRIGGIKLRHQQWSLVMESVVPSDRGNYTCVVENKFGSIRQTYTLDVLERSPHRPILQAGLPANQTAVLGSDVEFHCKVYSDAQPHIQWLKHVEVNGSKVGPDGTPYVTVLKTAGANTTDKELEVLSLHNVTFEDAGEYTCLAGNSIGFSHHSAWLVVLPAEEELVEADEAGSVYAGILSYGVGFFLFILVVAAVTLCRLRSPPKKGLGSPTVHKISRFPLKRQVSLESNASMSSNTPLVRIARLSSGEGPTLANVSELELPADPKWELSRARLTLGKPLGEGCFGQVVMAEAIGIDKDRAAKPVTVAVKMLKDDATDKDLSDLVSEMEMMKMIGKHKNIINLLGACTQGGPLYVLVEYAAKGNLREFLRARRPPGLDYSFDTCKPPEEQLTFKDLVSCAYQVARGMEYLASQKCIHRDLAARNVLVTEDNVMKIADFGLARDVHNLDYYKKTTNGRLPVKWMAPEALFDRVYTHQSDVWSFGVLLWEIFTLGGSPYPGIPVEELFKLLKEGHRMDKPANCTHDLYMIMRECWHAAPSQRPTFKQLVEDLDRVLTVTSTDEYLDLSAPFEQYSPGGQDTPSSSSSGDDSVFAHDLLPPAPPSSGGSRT
T3 sequence (P11362 22-822): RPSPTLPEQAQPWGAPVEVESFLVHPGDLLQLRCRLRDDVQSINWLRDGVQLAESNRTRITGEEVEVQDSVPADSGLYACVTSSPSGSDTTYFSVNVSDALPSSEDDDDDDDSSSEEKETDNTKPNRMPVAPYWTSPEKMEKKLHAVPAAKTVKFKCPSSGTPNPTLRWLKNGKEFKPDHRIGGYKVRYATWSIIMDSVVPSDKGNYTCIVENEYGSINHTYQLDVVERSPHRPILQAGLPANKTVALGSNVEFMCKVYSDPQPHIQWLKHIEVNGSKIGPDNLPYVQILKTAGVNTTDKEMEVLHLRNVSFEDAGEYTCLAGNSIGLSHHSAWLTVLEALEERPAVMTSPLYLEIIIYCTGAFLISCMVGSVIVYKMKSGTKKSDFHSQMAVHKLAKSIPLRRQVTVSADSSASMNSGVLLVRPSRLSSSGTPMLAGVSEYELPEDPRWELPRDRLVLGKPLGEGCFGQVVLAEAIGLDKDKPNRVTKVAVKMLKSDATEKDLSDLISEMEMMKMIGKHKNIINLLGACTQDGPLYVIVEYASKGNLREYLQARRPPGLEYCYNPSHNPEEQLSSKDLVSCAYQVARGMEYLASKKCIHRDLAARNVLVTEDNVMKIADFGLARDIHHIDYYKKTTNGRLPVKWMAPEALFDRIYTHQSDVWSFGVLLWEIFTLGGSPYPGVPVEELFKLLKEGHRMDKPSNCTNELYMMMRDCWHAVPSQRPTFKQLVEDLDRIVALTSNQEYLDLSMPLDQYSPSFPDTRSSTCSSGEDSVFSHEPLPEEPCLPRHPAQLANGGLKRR
T1 sequence (P22455 22-802): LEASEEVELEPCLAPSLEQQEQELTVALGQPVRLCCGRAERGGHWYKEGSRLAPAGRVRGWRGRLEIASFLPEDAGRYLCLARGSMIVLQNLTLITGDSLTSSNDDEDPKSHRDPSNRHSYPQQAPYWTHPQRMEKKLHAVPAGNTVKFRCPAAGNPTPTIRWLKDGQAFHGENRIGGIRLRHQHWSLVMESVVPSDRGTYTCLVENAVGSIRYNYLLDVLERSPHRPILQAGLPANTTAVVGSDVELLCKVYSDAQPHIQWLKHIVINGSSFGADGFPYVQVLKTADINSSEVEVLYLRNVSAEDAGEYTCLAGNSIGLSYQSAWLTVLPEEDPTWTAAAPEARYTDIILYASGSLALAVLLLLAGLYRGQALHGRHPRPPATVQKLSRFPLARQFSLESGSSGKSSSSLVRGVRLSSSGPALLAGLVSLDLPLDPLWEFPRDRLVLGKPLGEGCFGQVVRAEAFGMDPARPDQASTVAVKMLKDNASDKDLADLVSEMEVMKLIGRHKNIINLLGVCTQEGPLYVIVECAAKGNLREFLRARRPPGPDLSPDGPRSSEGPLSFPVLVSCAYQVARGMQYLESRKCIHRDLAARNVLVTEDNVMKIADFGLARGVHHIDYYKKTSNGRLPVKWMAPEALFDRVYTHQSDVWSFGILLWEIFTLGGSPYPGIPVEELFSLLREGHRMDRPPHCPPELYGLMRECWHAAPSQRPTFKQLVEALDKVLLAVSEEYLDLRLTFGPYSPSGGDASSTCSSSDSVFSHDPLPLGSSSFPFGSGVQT
T2 sequence (P21802 22-821): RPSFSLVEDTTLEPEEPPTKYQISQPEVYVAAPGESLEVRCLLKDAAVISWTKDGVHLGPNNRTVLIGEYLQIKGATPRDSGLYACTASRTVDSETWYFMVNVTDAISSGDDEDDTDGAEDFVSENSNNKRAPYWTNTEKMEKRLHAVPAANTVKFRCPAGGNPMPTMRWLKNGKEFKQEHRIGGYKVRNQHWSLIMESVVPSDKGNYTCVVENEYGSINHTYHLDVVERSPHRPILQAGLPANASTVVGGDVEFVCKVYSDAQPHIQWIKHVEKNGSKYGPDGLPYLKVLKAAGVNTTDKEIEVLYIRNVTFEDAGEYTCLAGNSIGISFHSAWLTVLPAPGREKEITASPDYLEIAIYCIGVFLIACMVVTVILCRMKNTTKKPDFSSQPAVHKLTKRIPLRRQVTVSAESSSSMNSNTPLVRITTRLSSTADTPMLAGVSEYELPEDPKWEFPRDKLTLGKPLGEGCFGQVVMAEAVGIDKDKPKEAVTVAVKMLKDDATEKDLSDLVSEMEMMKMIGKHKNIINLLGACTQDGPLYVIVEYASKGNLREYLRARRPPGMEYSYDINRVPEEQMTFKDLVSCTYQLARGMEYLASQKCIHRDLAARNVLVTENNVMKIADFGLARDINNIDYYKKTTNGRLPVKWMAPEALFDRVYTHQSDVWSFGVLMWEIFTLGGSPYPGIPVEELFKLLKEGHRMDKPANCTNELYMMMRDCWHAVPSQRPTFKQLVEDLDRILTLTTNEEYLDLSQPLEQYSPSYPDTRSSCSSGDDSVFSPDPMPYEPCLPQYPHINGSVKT

For the compound `COc1cc2[nH]nc(-c3cnc(N4CC(CC#N)(N5CCCC5)C4)c(C#N)c3)c2cc1O[C@H](C)c1c(Cl)cncc1Cl` [Example 354, (R)-2-(3-(cyanomethyl)-3-(pyrrolidin-1-yl)azetidin-1-yl)-5-(5-(1-(3,5-dichloropyridin-4-yl)ethoxy)-6-methoxy-1H-indazol-3-yl)nicotinonitrile], the IC50 in test [1] fell in the range of 50 to 200 nM; in test [2], 0.1 to 50 nM; in test [3] it was 0.1 to 50 nM; in test [8], 0.1 to 50 nM. Further, the dissociation constant Kd in test [4], in test [5], in test [6] and in test [7] was 1 to 50 nM throughout.
`CCCC1(N)CN(c2ncc(-c3n[nH]c4cc(OC)c(O[C@H](C)c5c(Cl)cncc5Cl)cc34)cc2C#N)C1` [Example 360, (R)-2-(3-amino-3-propylazetidin-1-yl)-5-(5-(1-(3,5-dichloropyridin-4-yl)ethoxy)-6-methoxy-1H-indazol-3-yl)nicotinonitrile]: the IC50 fell in the range of 50 to 200 nM in test [1], 50 to 200 nM in test [2], 0.1 to 50 nM in test [3] and 0.1 to 50 nM in test [8]. The Kd in test [4], in test [5], in test [6] and in test [7] was 1 to 50 nM throughout.
For `CCC1(NC)CN(c2ncc(-c3n[nH]c4cc(OC)c(O[C@H](C)c5c(Cl)cncc5Cl)cc34)cc2C#N)C1` [Example 351, (R)-5-(5-(1-(3,5-Dichloropyridin-4-yl)ethoxy)-6-methoxy-1H-indazol-3-yl)-2-(3-ethyl-3-(methyl-amino)azeti-din-1-yl)nicotinonitrile diHCl], the IC50 in test [1], in test [2], in test [3] and in test [8] was 0.1 to 50 nM throughout. Further, the dissociation constant (Kd) in test [4], in test [5], in test [6] and in test [7] was 1 to 50 nM in each case.
As for `C=CCC1(N)CN(c2ncc(-c3n[nH]c4cc(OC)c(O[C@H](C)c5c(Cl)cncc5Cl)cc34)cc2C#N)C1` [Example 362, (R)-2-(3-ally1-3-aminoazetidin-1-yl)-5-(5-(1-(3,5-dichloropyridin-4-yl)ethoxy)-6-methoxy-1H-indazol-3-yl)nicotinonitrile], the IC50 in test [1] lay in the range of 50 to 200 nM; in test [2], 50 to 200 nM; in test [3] it was 0.1 to 50 nM; in test [8], 0.1 to 50 nM. The Kd in test [4], in test [5], in test [6] and in test [7] was 1 to 50 nM throughout.
`COc1cc2[nH]nc(-c3cnc(N4CC(N)(C(C)C)C4)c(C#N)c3)c2cc1O[C@H](C)c1c(Cl)cncc1Cl` [Example 353, (R)-2-(3-amino-3-isopropylazetidin-1-yl)-5-(5-(1-(3,5-dichloropyridin-4-yl)ethoxy)-6-methoxy-1H-indazol-3-yl)nicotinonitrile]: the half-inhibitory concentration (IC50) in test [1] is 50 to 200 nM; in test [2], 50 to 200 nM; in test [3] it was 0.1 to 50 nM; in test [8], 0.1 to 50 nM. Besides, the dissociation constant Kd in test [4], in test [5], in test [6] and in test [7] was 1 to 50 nM in each case.
For the compound `COc1cc2[nH]nc(-c3cnc(N4CC(CC#N)(NCC5CC5)C4)c(C#N)c3)c2cc1O[C@H](C)c1c(Cl)cncc1Cl` [Example 346, (R)-2-(3-(cyanomethyl)-3-((cyclo-propylmethyl)-amino)azetidin-1-yl)-5-(5-(1-(3,5-dichloropyridin-4-yl)ethoxy)-6-methoxy-1H-indazol-3-yl)nicotinonitrile], the IC50 in test [1] lay within 50 to 200 nM; in test [2] it was 0.1 to 50 nM; in test [3], 0.1 to 50 nM; in test [8], 0.1 to 50 nM. Further, the Kd in test [4], in test [5], in test [6] and in test [7] was 1 to 50 nM throughout.
`COc1cc2[nH]nc(-c3cnc(N4CC(C)(N(C)CC(C)C)C4)c(C#N)c3)c2cc1O[C@H](C)c1c(Cl)cncc1Cl` [Example 343, (R)-5-(5-(1-(3,5-dichloropyridin-4-yl)ethoxy)-6-methoxy-1H-indazol-3-yl)-2-(3-(isobutyl(meth-yl)amino)-3-methylazetidin-1-yl)nicotinonitrile]: the IC50 in test [1] is more than 1000 nM; in test [2], 200 to 1000 nM; in test [3] it was 50 to 200 nM; in test [8], 200 to 1000 nM. Further, the equilibrium dissociation constant (Kd) in test [4] was 1 to 50 nM; in test [5], 50 to 300 nM; in test [6] it was 50 to 300 nM; in test [7], 1 to 50 nM.
With `CNC1(CC#N)CN(c2ncc(-c3n[nH]c4cc(OC)c(O[C@H](C)c5c(Cl)cncc5Cl)cc34)cc2C#N)C1` [Example 153, (R)-2-(3-(cyanomethyl)-3-(methylamino)azetidin-1-yl)-5-(5-(1-(3,5-dichloropyridin-4-yl)ethoxy)-6-methoxy-1H-indazol-3-yl)nicotinonitrile], the 50% inhibitory concentration (IC50) is 50 to 200 nM in test [1], 0.1 to 50 nM in test [2], 0.1 to 50 nM in test [3] and 0.1 to 50 nM in test [8]. Besides, the equilibrium dissociation constant (Kd) in test [4], in test [5], in test [6] and in test [7] was 1 to 50 nM throughout.
Turning to `COc1cc2[nH]nc(-c3cnc(N4CC(N)(C5CCC5)C4)c(C#N)c3)c2cc1O[C@H](C)c1c(Cl)cncc1Cl` [Example 356, (R)-2-(3-amino-3-cyclobutylazetidin-1-yl)-5-(5-(1-(3,5-dichloropyridin-4-yl)ethoxy)-6-methoxy-1H-indazol-3-yl)nicotinonitrile], the IC50 in test [1] was 50 to 200 nM; in test [2], 200 to 1000 nM; in test [3] it was 0.1 to 50 nM; in test [8], 0.1 to 50 nM. Besides, the Kd in test [4], in test [5], in test [6] and in test [7] was 1 to 50 nM each time.
Turning to `COc1cc2[nH]nc(-c3cnc(N4CC(N)(CC5CC5)C4)c(C#N)c3)c2cc1O[C@H](C)c1c(Cl)cncc1Cl` [Example 359], the IC50 in test [1] lay in the range of 50 to 200 nM; in test [2], 50 to 200 nM; in test [3], 50 to 200 nM; in test [8] it was 0.1 to 50 nM. Also, the dissociation constant Kd in test [4], in test [5], in test [6] and in test [7] was 1 to 50 nM in each case.
In the case of `COc1cc2[nH]nc(-c3cnc(N4CC(C)(N(C)CC5CC5)C4)c(C#N)c3)c2cc1O[C@H](C)c1c(Cl)cncc1Cl` [Example 344, (R)-2-(3-((cyclopropyl-methyl) (methyl)amino)-3-methylazetidin-1-yl)-5-(5-(1-(3,5-dichloropyridin-4-yl)ethoxy)-6-methoxy-1H-indazol-3-yl)nicotinonitrile], the IC50 in test [1] is 200 to 1000 nM; in test [2], 50 to 200 nM; in test [3] it was 0.1 to 50 nM; in test [8] it was 0.1 to 50 nM. In addition, the Kd in test [4], in test [5], in test [6] and in test [7] was 1 to 50 nM in each case.
With `COc1cc2[nH]nc(-c3cnc(N4CC(N)(CCS(C)(=O)=O)C4)c(C#N)c3)c2cc1O[C@H](C)c1c(Cl)cncc1Cl` [Example 364, (R)-2-(3-amino-3-(2-(methylsulfonyl)ethyl)azetidin-1-yl)-5-(5-(1-(3,5-dichloropyridin-4-yl)ethoxy)-6-methoxy-1H-indazol-3-yl)nicotinonitrile], the half-maximal inhibitory concentration (IC50) in test [1] was more than 1000 nM; in test [2], 50 to 200 nM; in test [3] it was 50 to 200 nM; in test [8], 0.1 to 50 nM. The dissociation constant Kd in test [4], in test [5], in test [6] and in test [7] was 1 to 50 nM in each case.
`COc1cc2[nH]nc(-c3cnc(N4CC(N)(CC(C)C)C4)c(C#N)c3)c2cc1O[C@H](C)c1c(Cl)cncc1Cl` [Example 357, (R)-2-(3-amino-3-isobutylazetidin-1-yl)-5-(5-(1-(3,5-dichloropyridin-4-yl)ethoxy)-6-methoxy-1H-indazol-3-yl)nicotinonitrile]: the IC50 in test [1] lay in the range of 50 to 200 nM; in test [2], 50 to 200 nM; in test [3], 50 to 200 nM; in test [8] it was 0.1 to 50 nM. Further, the Kd in test [4], in test [5], in test [6] and in test [7] was 1 to 50 nM each time.
